{"source": "PubChem BioAssay AID328", "about": "(DTP/NCI, 2004)", "test_system": "BDF1 mice, P388 leukemia ip, median survival T/C", "test": "NCI In Vivo Anticancer Drug Screen. Data for tumor model P388 Leukemia (intraperitoneal) in B6D2F1 (BDF1) mice", "details": "endpoint: median survival time, higher = longer survival", "how_it_was_run": "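In tumour-bearing mice, survival after compound treatment is set against the vehicle group and given as a quotient.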", "key": {"[1]": {"details": "dose: 12.5 mg/kg/injection, schedule: Q01DX009 (ip), vehicle: saline"}, "[2]": {"details": "dose: 25.0 mg/kg/injection, schedule: Q01DX009 (ip), vehicle: saline"}, "[3]": {"details": "dose: 50.0 mg/kg/injection, schedule: Q01DX009 (ip), vehicle: saline"}, "[4]": {"details": "dose: 50.0 mg/kg/injection, schedule: Q01DX009 (ip), vehicle: saline with Tween-80"}, "[5]": {"details": "dose: 100.0 mg/kg/injection, schedule: Q01DX009 (ip), vehicle: saline with Tween-80"}, "[6]": {"details": "dose: 200.0 mg/kg/injection, schedule: Q01DX009 (ip), vehicle: saline"}, "[7]": {"details": "dose: 400.0 mg/kg/injection, schedule: Q01DX009 (ip), vehicle: saline"}, "[8]": {"details": "dose: 12.5 mg/kg/injection, schedule: Q04DX003 (ip), vehicle: Klucel (hydroxypropylcellulose) (HPC)"}, "[9]": {"details": "dose: 25.0 mg/kg/injection, schedule: Q04DX003 (ip), vehicle: Klucel (hydroxypropylcellulose) (HPC)"}, "[10]": {"details": "dose: 50.0 mg/kg/injection, schedule: Q04DX003 (ip), vehicle: Klucel (hydroxypropylcellulose) (HPC)"}, "[11]": {"details": "dose: 12.5 mg/kg/injection, schedule: Q01DX009 (ip), vehicle: Klucel (hydroxypropylcellulose) (HPC)"}, "[12]": {"details": "dose: 25.0 mg/kg/injection, schedule: Q01DX009 (ip), vehicle: Klucel (hydroxypropylcellulose) (HPC)"}, "[13]": {"details": "dose: 50.0 mg/kg/injection, schedule: Q01DX009 (ip), vehicle: Klucel (hydroxypropylcellulose) (HPC)"}}, "note": "Where “and” joins values, the source holds several entries; their conditions need not be identical. Equal values may be shown once. Toxic doses and inconclusive results are not listed.", "data": [{"smiles": "C=CCNC(=O)C(Br)(CC)CC", "values": [{"measurement": "T/C", "setting": "[1]", "value": "100 % of control"}, {"measurement": "T/C", "setting": "[2]", "value": "100 % of control"}, {"measurement": "T/C", "setting": "[3]", "value": "88 % of control and 100 % of control"}]}, {"smiles": "Cc1cc(O)c(C(c2ccccc2)c2c(O)cc(C)[nH]c2=O)c(=O)[nH]1", "values": [{"measurement": "T/C", "setting": "[4]", "value": "94 % of control"}, {"measurement": "T/C", "setting": "[5]", "value": "86 % of control"}]}, {"smiles": "CCOC(=O)CCN1CCCCC1", "values": [{"measurement": "T/C", "setting": "dose: 100.0 mg/kg/injection, schedule: Q01DX009 (ip), vehicle: saline", "value": "96 % of control"}, {"measurement": "T/C", "setting": "dose: 100.0 mg/kg/injection, schedule: Q04DX003 (ip), vehicle: saline", "value": "95 % of control"}, {"measurement": "T/C", "setting": "[6]", "value": "89 % of control"}, {"measurement": "T/C", "setting": "dose: 200.0 mg/kg/injection, schedule: Q04DX003 (ip), vehicle: saline", "value": "109 % of control"}, {"measurement": "T/C", "setting": "[7]", "value": "107 % of control"}, {"measurement": "T/C", "setting": "dose: 400.0 mg/kg/injection, schedule: Q04DX003 (ip), vehicle: saline", "value": "109 % of control"}]}, {"smiles": "O=[N+]([O-])c1cc([N+](=O)[O-])c2ccccc2c1NS(=O)(=O)/C=C/c1ccccc1", "values": [{"measurement": "T/C", "setting": "dose: 25.0 mg/kg/injection, schedule: Q01DX009 (ip), vehicle: saline with Tween-80", "value": "104 % of control"}, {"measurement": "T/C", "setting": "[4]", "value": "112 % of control"}, {"measurement": "T/C", "setting": "[5]", "value": "111 % of control"}]}, {"smiles": "CCC(=O)NC(N)=S", "values": [{"measurement": "T/C", "setting": "[8]", "value": "100 % of control"}, {"measurement": "T/C", "setting": "[9]", "value": "100 % of control"}, {"measurement": "T/C", "setting": "[10]", "value": "100 % of control"}]}, {"smiles": "CCCCCC(CN(C)C)C(=O)/C=C/c1cccc(O)c1", "note": "(stereo not drawn)", "values": [{"measurement": "T/C", "setting": "[4]", "value": "106 % of control"}, {"measurement": "T/C", "setting": "[5]", "value": "98 % of control"}]}, {"smiles": "COc1cc(C=Nc2cccc(C(=O)O)c2)ccc1N(CCCl)CCCl", "values": [{"measurement": "T/C", "setting": "dose: 66.0 mg/kg/injection, schedule: Q04DX003 (ip), vehicle: saline with Tween-80", "value": "260 % of control"}]}, {"smiles": "CCOC(=O)C(NC(C)=O)(C(=O)OCC)C(C)C(=O)c1ccc(OC)c(OC)c1OCc1ccccc1", "note": "(stereo not drawn)", "values": [{"measurement": "T/C", "setting": "[1]", "value": "101 % of control"}, {"measurement": "T/C", "setting": "[2]", "value": "111 % of control"}, {"measurement": "T/C", "setting": "[3]", "value": "92 % of control"}, {"measurement": "T/C", "setting": "[6]", "value": "101 % of control"}]}, {"smiles": "Cc1ncc(-c2ccc([N+](=O)[O-])cc2)o1", "values": [{"measurement": "T/C", "setting": "[11]", "value": "87 % of control"}, {"measurement": "T/C", "setting": "[8]", "value": "96 % of control"}, {"measurement": "T/C", "setting": "[12]", "value": "91 % of control"}, {"measurement": "T/C", "setting": "[9]", "value": "92 % of control"}, {"measurement": "T/C", "setting": "[13]", "value": "91 % of control"}, {"measurement": "T/C", "setting": "[10]", "value": "103 % of control"}, {"measurement": "T/C", "setting": "dose: 200.0 mg/kg/injection, schedule: Q04DX003 (ip), vehicle: Klucel (hydroxypropylcellulose) (HPC)", "value": "92 % of control"}]}, {"smiles": "CCOc1ccc(N2CC(=O)N3CCCC(c4ccccc4)N3C(=O)C2)cc1", "note": "(stereo not drawn)", "values": [{"measurement": "T/C", "setting": "dose: 50.0 mg/kg/injection, schedule: Q01DX005 (ip), vehicle: saline with Tween-80", "value": "108 % of control"}, {"measurement": "T/C", "setting": "dose: 100.0 mg/kg/injection, schedule: Q01DX005 (ip), vehicle: saline with Tween-80", "value": "94 % of control"}, {"measurement": "T/C", "setting": "dose: 200.0 mg/kg/injection, schedule: Q01DX005 (ip), vehicle: saline with Tween-80", "value": "94 % of control"}]}, {"smiles": "COS(=O)(=O)Oc1ccc2ccccc2c1", "values": [{"measurement": "T/C", "setting": "[12]", "value": "98 % of control"}, {"measurement": "T/C", "setting": "[13]", "value": "100 % of control"}, {"measurement": "T/C", "setting": "dose: 100.0 mg/kg/injection, schedule: Q01DX009 (ip), vehicle: Klucel (hydroxypropylcellulose) (HPC)", "value": "108 % of control"}]}, {"smiles": "CC1=CC(=O)NC1O", "note": "(stereo not drawn)", "values": [{"measurement": "T/C", "setting": "dose: 2.5 mg/kg/injection, schedule: Q01DX010 (ip), vehicle: saline", "value": "87 % of control"}, {"measurement": "T/C", "setting": "dose: 10.0 mg/kg/injection, schedule: Q01DX010 (ip), vehicle: saline", "value": "91 % of control"}, {"measurement": "T/C", "setting": "dose: 15.0 mg/kg/injection, schedule: Q01DX010 (ip), vehicle: saline", "value": "100 % of control"}]}, {"smiles": "CC1(COCCOCC2(C)CO2)CO1", "note": "(stereo not drawn)", "values": [{"measurement": "T/C", "setting": "[7]", "value": "175 % of control"}, {"measurement": "T/C", "setting": "dose: 600.0 mg/kg/injection, schedule: Q01DX009 (ip), vehicle: saline", "value": "208 % of control"}]}, {"smiles": "CN1CCN(CCOC(=O)N2c3ccccc3Sc3ccccc32)CC1", "values": [{"measurement": "T/C", "setting": "[11]", "value": "100 % of control"}, {"measurement": "T/C", "setting": "[12]", "value": "105 % of control"}, {"measurement": "T/C", "setting": "[13]", "value": "100 % of control"}]}, {"smiles": "CC(=O)c1ccc2c(c1)N(CCCN1CCN(CCO)CC1)c1ccccc1S2", "values": [{"measurement": "T/C", "setting": "dose: 3.12 mg/kg/injection, schedule: Q01DX009 (ip), vehicle: saline", "value": "107 % of control"}, {"measurement": "T/C", "setting": "dose: 6.25 mg/kg/injection, schedule: Q01DX009 (ip), vehicle: saline", "value": "96 % of control"}, {"measurement": "T/C", "setting": "[1]", "value": "94 % of control"}]}]}
